Assay results: publication PMC13377601, “Discovery of VU6066098: A Selective and CNS-Penetrant mGlu2 NAM with Robust Antidepressant‑, Antipsychotic‑, and Procognitive-like Activity in Rodents” (ACS Chemical Neuroscience, 2026)

Target: T1, human mGlu2 (Homo sapiens, UniProt Q14416)
T1 construct: expressed in transfected cells; host or cells: HEK293 stably co-expressing GIRK channels
Test: mGlu2/GIRK thallium flux assay (human)
Format: cell-based
Conditions: NAM vs glutamate EC80
Description: Molecular Pharmacolgy Methods
Assessment of Cellular Potency of mGlu2 compounds in Thallium Flux Assay Human embryonic kidney 293 (HEK293) cell lines stably co-expressing human or rat mGlu2 and G protein-coupled inwardly rectifying potassium (GIRK) channels were maintained in growth medium containing DMEM/F12 containing 10% FBS, 20 mM HEPES, 1 mM sodium pyruvate, 2 mM L-glutamine, non-essential amino acids mixture, 1X Antibiotic/Antimycotic, 700 μg/mL G418, and 0.6 μg/mL puromycin. […]
Using a microplate washer (BioTek, Winooski, VT), cells were washed with GIRK assay buffer 4 times to remove media. […] The compound, agonist, and cell plates were placed inside the Functional Drug Screening System (FDSS 7000 or µCell kinetic imaging plate reader, Hamamatsu, Japan) to measure the thallium flux using a double add protocol. After establishment of a fluorescence baseline (excitation, 480 nm; emission, 530 nm), 20 µL (2x) of test compound was added to the cells at 2 seconds and the response was measured. 140 seconds later, 10 µL (5x) of an EC80 concentration of glutamate or vehicle in thallium stimulus buffer was added to the cells, and the response of the cells was measured for an additional 158 seconds. […] Fluorescence was measured […]
The average of all baseline slopes (no compound, no glutamate) was determined and this value was subtracted from all other slope values.

T1 sequence (Q14416 19-872): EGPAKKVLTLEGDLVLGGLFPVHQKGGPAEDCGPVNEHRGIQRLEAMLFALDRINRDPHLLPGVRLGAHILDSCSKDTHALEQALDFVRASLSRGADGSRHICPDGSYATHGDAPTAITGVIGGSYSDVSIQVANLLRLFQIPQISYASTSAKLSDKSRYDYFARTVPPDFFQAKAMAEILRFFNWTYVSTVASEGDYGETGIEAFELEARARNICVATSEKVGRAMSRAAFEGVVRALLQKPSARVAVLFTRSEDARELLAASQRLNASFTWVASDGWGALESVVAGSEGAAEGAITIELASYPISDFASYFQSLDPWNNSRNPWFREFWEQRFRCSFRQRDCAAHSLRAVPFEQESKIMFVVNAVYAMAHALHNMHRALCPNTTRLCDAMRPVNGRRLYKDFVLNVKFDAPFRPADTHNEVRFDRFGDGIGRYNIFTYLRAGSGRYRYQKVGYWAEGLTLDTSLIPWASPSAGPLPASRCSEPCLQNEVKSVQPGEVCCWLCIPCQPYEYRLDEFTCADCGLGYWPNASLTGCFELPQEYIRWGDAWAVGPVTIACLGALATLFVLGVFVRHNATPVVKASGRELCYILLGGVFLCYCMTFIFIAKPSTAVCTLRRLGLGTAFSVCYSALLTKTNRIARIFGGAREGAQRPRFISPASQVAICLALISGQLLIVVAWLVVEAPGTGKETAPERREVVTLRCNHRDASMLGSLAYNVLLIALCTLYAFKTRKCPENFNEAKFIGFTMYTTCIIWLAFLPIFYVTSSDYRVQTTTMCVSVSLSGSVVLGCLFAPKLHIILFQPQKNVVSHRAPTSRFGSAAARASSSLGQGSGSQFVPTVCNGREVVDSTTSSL

Cn1ccc(COc2cnc(C(N)=O)cc2-c2ccc(F)cc2)n1 [NAM 5] showed an IC50 of 78 nM.
